Test results as given in publication PMC12655338, “Reversing the Warburg Effect: YW3-56 Induces Leukemia Differentiation via AKT-Mediated Glucose Metabolic Reprogramming” (Pharmaceuticals, 2025).

Target: T1, PAD4 (Protein arginine deiminase 4) (Homo sapiens, UniProt Q9UM07)
T1 construct: gene PADI4
Experiment: colorimetric PAD4 enzyme assay, citrullination of BAEE
Type: biochemical

T1 sequence (Q9UM07 whole entry): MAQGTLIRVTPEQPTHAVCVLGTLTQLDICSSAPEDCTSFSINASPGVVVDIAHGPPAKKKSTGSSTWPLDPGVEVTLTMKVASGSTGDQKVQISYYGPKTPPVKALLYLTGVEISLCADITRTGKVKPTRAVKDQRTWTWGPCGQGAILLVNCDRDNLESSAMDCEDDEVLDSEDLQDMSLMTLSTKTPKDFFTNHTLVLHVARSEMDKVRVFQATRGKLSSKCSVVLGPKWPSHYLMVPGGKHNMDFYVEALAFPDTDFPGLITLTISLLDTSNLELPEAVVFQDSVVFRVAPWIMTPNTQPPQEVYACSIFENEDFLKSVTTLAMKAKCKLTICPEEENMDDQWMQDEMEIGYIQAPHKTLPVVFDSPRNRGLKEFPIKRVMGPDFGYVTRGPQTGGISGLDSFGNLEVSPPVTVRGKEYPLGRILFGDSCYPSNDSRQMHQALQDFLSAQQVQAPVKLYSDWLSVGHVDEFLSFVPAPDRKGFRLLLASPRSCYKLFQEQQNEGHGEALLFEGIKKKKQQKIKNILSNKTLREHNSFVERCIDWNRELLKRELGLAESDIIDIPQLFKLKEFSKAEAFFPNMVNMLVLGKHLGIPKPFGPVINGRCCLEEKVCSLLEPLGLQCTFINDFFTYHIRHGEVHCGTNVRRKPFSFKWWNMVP

`CN(C)c1ccc2cc(C(=O)N[C@@H](CCCNC(=N)CCl)C(=O)NCc3ccccc3)ccc2c1` [YW3-56] showed an IC50 of 4.1 ± 0.28 µM.
